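Tested at 5 concentrations; 48 h exposure; 96-well plates; endpoints linearly interpolated, else capped at highest concentration. At the GI50, growth is halved. TGI: total growth inhibition.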
Columns and labels:
Assay in all cases: growth of human tumour cells (NCI), 48 h
HS 578T breast = tested on: HS 578T breast
LOX IMVI melanoma = tested on: LOX IMVI melanoma
MDA-MB-231 breast = tested on: MDA-MB-231 breast
MOLT-4 leukemia = tested on: MOLT-4 leukemia
OVCAR-3 ovarian = tested on: OVCAR-3 ovarian
U251 CNS = tested on: U251 CNS
UO-31 renal = tested on: UO-31 renal
DLD-1 colon = tested on: DLD-1 colon
LXFL 529 NSCLC = tested on: LXFL 529 NSCLC

| SMILES | GI50 (HS 578T breast) [µM] | TGI (HS 578T breast) [µM] | GI50 (LOX IMVI melanoma) [µM] | TGI (LOX IMVI melanoma) [µM] | GI50 (MDA-MB-231 breast) [µM] | TGI (MDA-MB-231 breast) [µM] | GI50 (MOLT-4 leukemia) [µM] | TGI (MOLT-4 leukemia) [µM] | GI50 (OVCAR-3 ovarian) [µM] | TGI (OVCAR-3 ovarian) [µM] | GI50 (U251 CNS) [µM] | TGI (U251 CNS) [µM] | GI50 (UO-31 renal) [µM] | TGI (UO-31 renal) [µM] | TGI (DLD-1 colon) [µM] | TGI (LXFL 529 NSCLC) [µM] | GI50 (DLD-1 colon) [µM] |
| --- | --- | --- | --- | --- | --- | --- | --- | --- | --- | --- | --- | --- | --- | --- | --- | --- | --- |
| N[C@@H](Cc1c[nH]c2ccccc12)C(=O)NC1CCN(C(=O)c2c[nH]c3ccccc23)CC1 | 71.3 | > 100 | 96.1 | > 100 | 75.4 | > 100 | 63.5 | > 100 | > 100 | > 100 | > 100 | > 100 | > 100 | > 100 |  |  |  |
| COc1ccc2[nH]c(-c3ccccn3)cc(=O)c2c1 |  |  |  | > 100 |  |  |  | > 100 | > 100 | > 100 |  |  |  | > 100 | > 100 | > 100 |  |
| O=C1NC(=S)NC(=O)C1=Cc1cc2c(cc1[N+](=O)[O-])OCO2 |  |  |  |  |  |  |  | > 100 |  | > 100 |  | > 100 |  | > 100 | > 100 |  |  |
| Cc1cccc(-c2nc3c(C(=O)NCCN(C)C)cccc3[nH]2)c1 |  |  |  | 2 |  |  |  |  |  | 6.55 |  | 5.77 |  | 5.05 | 7.95 |  |  |
| CC(=O)CCCCCCCCCCCC[C@@H]1CC[C@H](C)[C@H](O)N1 |  |  |  | > 100 |  |  |  | > 100 |  | > 100 |  | > 100 |  | > 100 | > 100 | > 100 |  |
| CCCCCCCCCCC/C(=N/O)c1ccc(O)c2ncccc12 |  |  |  | 13.6 |  |  |  |  |  |  |  | 23.5 |  | 11.4 | 8.91 | 7.57 |  |
| O=C1C(Cl)C(c2cccc(O)c2)N1n1cnc2ccccc2c1=O (stereo not drawn) |  |  |  | > 100 |  |  |  | > 100 |  | > 100 |  | > 100 |  | > 100 | > 100 | > 100 |  |
| C(=N\Nc1ccccn1)/c1ccccn1 | 1.41 | > 100 | 0.319 | > 100 | 0.501 | > 100 | 0.392 | > 100 | 0.286 |  | 0.445 | > 100 | 0.267 | > 34.1 |  |  |  |
| CN(C)CCCn1c2c(c3cnccc3c1=O)C(=O)c1ccccc1-2 | 1.04 | 7.53 | 0.303 | 4.18 | 0.623 | 3.1 | 0.232 | 2.1 | 1.1 | 5.47 | 0.425 | 11.4 | 0.183 | 2.55 |  |  |  |
| Cc1c(/C=N/NS(=O)(=O)c2ccccc2)no[n+]1[O-] |  |  |  |  |  |  |  | > 100 |  | > 100 |  | > 100 |  | 49.6 |  | > 100 |  |
| CCCCn1c2cc(OCc3cn(-c4ccc(Cl)cc4)nn3)ccc2c2ccnc(C)c21 | 7.09 | 32.1 | 5.91 | 12.3 | 7.26 | 24.6 | 6.07 | 23.9 | 6.41 | 18.2 | 5.66 | 12.6 | 4.32 | 10 |  |  |  |
| [N-]=[N+]=NC(c1cn(C2CC(O)C(CO)O2)c(=O)[nH]c1=O)C(Br)I (stereo not drawn) |  |  |  | > 100 |  |  |  | > 100 |  | > 100 |  | > 100 |  | > 100 | > 100 | > 100 |  |
| Cc1ccc(C(CN(C)C)C(=O)c2ccccc2)cc1 (stereo not drawn) | 4.7 | 33.6 | 1.01 | 2.27 | 2.64 | 7.07 | 1.68 | 5.75 | 1.86 | 3.55 | 3.4 | 12.8 | 1.86 | 3.86 |  |  |  |
| CC1=C(/C=C/C(C)=C\C=C\C(C)=C\C(=O)Nc2ccc3c(c2)OCO3)C(C)(C)CCC1 | > 100 | > 100 | 16.8 | > 100 | > 100 | > 100 | 16.1 | > 100 | > 100 | > 100 | 77.5 | > 100 | > 100 | > 100 |  |  |  |
| COc1ccc(C=C2C(=O)OC(C)(C)OC2=O)cc1OC |  |  |  |  |  |  |  | > 100 |  | > 100 |  | > 100 |  | > 100 | > 100 | > 100 |  |
| C=C1[C@@H](C)[C@H]2[C@H](Cc3ccccc3)NC(=O)[C@]23OC(=O)/C=C/[C@H](O)CCC[C@@H](C)C/C=C/[C@H]3[C@@H]1O |  |  |  | 39.6 |  | > 100 |  | 72.3 |  | 91.4 |  | 57.8 |  | 4.12 | > 100 |  |  |
| Cc1ccccc1-c1c(N)nc(NC#N)nc1C(=O)Nc1ccccc1 |  |  |  | > 100 |  |  |  | > 100 |  | > 100 |  | > 100 |  | > 100 | > 100 | > 100 |  |
| CCN1C2=NC(=O)N(C)C(=O)C2(Cl)C(C(SC)S(=O)(=O)c2ccc(C)cc2)c2ccccc21 (stereo not drawn) |  |  |  | > 100 |  |  |  | 13.3 |  | 80.2 |  | > 100 |  | 76.1 | > 100 | 59.3 |  |
| [Cl][Bi]([O]c1ccccn1)[O]c1ccccn1 |  |  | > 100 | > 100 |  |  |  |  | > 100 | > 100 | > 100 | > 100 | > 100 | > 100 | > 100 |  | > 100 |

Reference: PubChem BioAssay (NCI)
